{"source": "paper PMC9101684", "about": "“Hempseed (Cannabis sativa) Peptide H3 ([sequence]) Exerts Cholesterol-Lowering Effects in Human Hepatic Cell Line” (Nutrients, 2022)", "key": {"HMGCoAR [1]": {"system": "HMGCoAR", "design": "method as in 5 sources, ref 24 = [24]; PMID 2513368; doi:10.1016/S0022-2275(20)38255-9; 24. Mosley S.T. Kalinowski S.S. Schafer B.L. Tanaka R.D. Tissue-selective acute effects of inhibitors of 3-hydroxy-3-methylglutaryl coenzyme A reductase on cholesterol biosynthesis in lens J. Lipid Re ||| ref 32 = [32]; PMID 25690031; doi:10.3390/ijms16024150; 32. Soares R.A.M. Mendonça S. De Castro L.Í.A. Menezes A.C.C.C.C. Arêas J.A.G. Major Peptides from Amaranth (Amaranthus cruentus) Protein Inhibit HMG-CoA Reductase Activity Int. J. Mol. Sci. 2015 16 4 ||| ref 33 = [33]; doi:10.1016/j.jff.2015.02.021; 33. Lammi C. Zanoni C. Arnoldi A. […], […], and LPYP, three peptides from soy glycinin, modulate cholesterol metabolism in HepG2 cells through the activation of the LDLR-SREBP2 pathway J. Fu ||| ref 34 = [34]; PMID 26310992; doi:10.1021/acs.jafc.5b03497; 34. Lammi C. Zanoni C. Arnoldi A. Vistoli G. Two Peptides from Soy β-Conglycinin Induce a Hypocholesterolemic Effect in HepG2 Cells by a Statin-Like Mechanism: Comparative in Vitro and in Silico Model ||| ref 11, 12 = [11]; PMID 29096438; doi:10.1021/acs.jafc.7b03590; 11. Aiello G. Lammi C. Boschin G. Zanoni C. Arnoldi A. Exploration of Potentially Bioactive Peptides Generated from the Enzymatic Hydrolysis of Hempseed Proteins J. Agric. Food Chem. 2017 65 10174 101 || [12]; PMID 28931275; doi:10.1021/acs.jafc.7b02742; 12. Zanoni C. Aiello G. Arnoldi A. Lammi C. Hempseed Peptides Exert Hypocholesterolemic Effects with a Statin-Like Mechanism J. Agric. Food Chem. 2017 65 8829 8838 10.1021/acs.jafc.7b02742 28931275", "settings": "cited from earlier work", "excerpt": "Th ... || CVD is a multifactorial pathology in which oxidative and inflammatory status as well as hypercholesterolemia are among the main risk factors."}, "HNF1-α": {"system": "HNF1-α", "experiment": "Western blot, HNF1-α in HepG2 cells", "format": "cell-based, human", "settings": "pravastatin 1.0 µM, 24 h, versus control; p < 0.0001; mean ± S.D., three experiments in duplicate", "method": "(§1) Immunoblotting experiments were performed using an optimized protocol. Details are available in the Supplementary Materials. […]\n(§2) 2.7. Western Blot Analysis\n(§3) Immunoblotting experiments were performed using optimized protocol […]\n(§4) µM of H3 for 24 h. After each treatment, the supernatants were collected and stored at -20 °C; cells were scraped in 40 µL ice-cold lysis buffer (RIPA buffer + inhibitor cocktail + 1:100 PMSF + 1:100 Na-orthovanadate + 1:1000 β-mercaptoethanol) and transferred in ice-cold microcentrifuge tubes. After centrifugation at 13,300 g for 15 min at 4 °C, the supernatants were recovered and transferred into new ice-cold tubes. […]\n(§5) Cocktail) on ice for 20 min and then centrifuged 12000 rpm for 10 min at 4°C and the supernatant was collected (nucleus isolate). Total proteins were quantified […]\n(§6) Sodium Dodecyl Sulfate-Polyacrylamide (SDS-PAGE) gel at 130 V for 45 min.\n(§7) Subsequently, the gel was pre-equilibrated in H2O for 5 min at room temperature (RT) and transferred to a nitrocellulose membrane (Mini nitrocellulose Transfer Packs,) using a Trans-Blot Turbo at 1.3 A, 25 V for 7 min. Target proteins, on milk or BSA blocked membrane, were detected by primary antibodies as follows: anti-SREBP-2, anti-LDLR, anti-HMGCoAR, anti-PCSK9, anti HNF1-α, anti-p-HMGCoAR, anti-p-AMPK and anti-β-actin. […]"}, "HMGCoAR [2]": {"system": "HMGCoAR", "experiment": "Western blot, HMGCoAR protein in HepG2 cells", "format": "cell-based, human", "settings": "pravastatin 1.0 µM, 24 h, versus control; p < 0.01; mean ± S.D., three independent experiments in duplicate", "method": "as §1, §2, §3, §4, §5, §6, §7"}, "AMPK [3]": {"system": "AMPK", "experiment": "Western blot, p-AMPK (threonine 172) in HepG2 cells", "format": "cell-based, human", "settings": "pravastatin 1.0 µM, 24 h, versus control; p < 0.05; mean ± S.D., three independent experiments in duplicate", "method": "as §1, §2, §3, §4, §5, §6, §7"}, "LDLR [4]": {"system": "LDLR", "experiment": "In-Cell Western (ICW), LDLR localized on cellular membranes of HepG2 cells", "format": "cell-based, human", "settings": "pravastatin 1.0 µM, 24 h, versus control, p < 0.0001, mean ± S.D., three experiments in triplicate", "description": "For the experiments, a total of 3 × 10^4 HepG2 cells/well were seeded in 96-well plates. The following day, the cells were washed with PBS and then starved overnight (O/N) in DMEM without FBS nor antibiotics.\nHMGCoAR were provided in the HMGCoAR Assay Kit (Sigma Aldrich SRL, Milan, Italy). The experiments were carried out following the manufacturer instructions at 37 °C. In particular, each reaction (200 µL) was prepared adding the reagents in the following order: 1 X assay buffer, a 10–1000 µM doses of H3 or vehicle (C), the NADPH (4 µL), the substrate solution (12 µL), and finally the HMGCoAR (catalytic domain) (2 µL). Subsequently, the samples were mixed and the absorbance at 340 nm read by the microplate reader Synergy H1\nIn-Cell Western (ICW) Assay\nFor the experiments, a total of 3 X 10 4 HepG2 cells/well were seeded in 96-well plates. The following day, cells were washed with PBS and then starved overnight (O/N) in DMEM without FBS and antibiotics.\nSubsequently, they were fixed in 4% paraformaldehyde for 20 min at room temperature (RT). […] The reaction was stopped with 2 M H2SO4 and then the absorbance at 450 nm was measured using the microplate reader Synergy H1 (Winooski, VT, USA). After the read, cells were stained by adding 1 X Janus Green stain, incubating for 5 min at RT. […]"}, "SREBP-2": {"system": "SREBP-2", "experiment": "Western blot, mature and precursor SREBP-2 in HepG2 cells", "format": "cell-based, human", "settings": "pravastatin 1.0 µM, 24 h, versus untreated", "method": "as §1, §2, §3\nµM of H3 for 24 h. After each treatment, the supernatants were collected and stored at -20 °C; cells were scraped in 40 µL ice-cold lysis buffer (RIPA buffer + inhibitor cocktail + 1:100 PMSF + 1:100 Na-orthovanadate + 1:1000 β-mercaptoethanol) and transferred in ice-cold microcentrifuge tubes. After centrifugation at 13,300 g for 15 min at 4 °C, the supernatants were recovered and transferred into new ice-cold tubes. For the mature SREBP-2 nuclear […]\nfor at 37 °C under 5% CO2 atmosphere for 24h. Therefore, cells were collected with PBS ice-cold and centrifuged 1500 rmp for 5 min at 4°C. The pellet was incubated with 20 µL of Nuclei Isolation Buffer A (10 mM HEPES pH 7.9, 1.5 mM MgCl2, 10 mM KCl, 0.2 mM EDTA, 0.1% β-mercaptoethanol, 0.5 mM PMSF, 0.1 % NP-40, one cOmplete™ Mini, EDTA-free Protease Inhibitor Cocktail) on ice for 10 min and then centrifuged 12000 rpm for 10 min at 4°C. Subsequently, the pellet was incubated with 20 µL of Nuclei Isolation Buffer B (20 mM HEPES […]\n0.5 mM PMSF, 0.42 M NaCl, one cOmplete™ Mini, EDTA-free Protease Inhibitor Cocktail) on ice for 20 min and then centrifuged 12000 rpm for 10 min at 4°C and the supernatant was collected (nucleus isolate). Total proteins were quantified […]\nas §7, with “anti-β-actin. Secondary antibodies conjugated with HRP and a chemiluminescent reagent were used to visualize target proteins and their signal was quantified using the Image Lab Software (Biorad, Hercules,” for “anti-β-actin.”"}, "PCSK9 [5]": {"system": "PCSK9", "experiment": "Western blot, intracellular PCSK9 in HepG2 cells", "format": "cell-based, human", "settings": "pravastatin 1.0 µM, 24 h, versus control; p < 0.0001; mean ± S.D., three experiments in duplicate", "method": "as §1, §2, §3, §4, §5, §6, §7"}, "LDLR [6]": {"system": "LDLR", "experiment": "Western blot, total LDLR in HepG2 cells", "format": "cell-based, human", "settings": "pravastatin 1.0 µM, 24 h, versus control; p < 0.001; mean ± S.D., three independent experiments in duplicate", "method": "as §1, §2, §3, §4, §5, §6, §7"}, "HepG2 cells": {"system": "HepG2 cells", "experiment": "Fluorescent LDL uptake by HepG2 cells", "format": "cell-based, human", "settings": "pravastatin 1.0 µM, 24 h, then LDL-DyLight 550 for 2 h at 37 °C, fluorescence, versus control; p < 0.0001; mean ± S.D., three experiments in triplicate", "method": "treatment, the culture medium was replaced with 50 µL/well LDL-DyLight™ 550 working solution (Cayman Chemical Company, Ann Arbor, MI, USA) prepared in DMEM without FBS and antibiotics. The cells were additionally incubated for 2 h at 37 °C and then the culture medium was aspirated and replaced with PBS (100 µL/well). The degree of LDL uptake was measured using the Synergy H1 fluorescent plate reader (Winooski, VT, USA) (excitation and […]"}, "PCSK9 [7]": {"system": "PCSK9", "experiment": "ELISA, mature PCSK9 secreted by HepG2 cells", "format": "cell-based, human"}, "p-HMGCoAR": {"system": "p-HMGCoAR", "experiment": "Western blot, p-HMGCoAR (serine 872) in HepG2 cells", "format": "cell-based, human", "settings": "pravastatin 1.0 µM, 24 h, versus control; p < 0.01; mean ± S.D., three independent experiments in duplicate", "method": "as §1, §2, §3, §4, §5, §6, §7"}, "AMPK [8]": {"system": "AMPK", "settings": "cited from earlier work", "excerpt": "Furthermore, it is also known that statins are able to activate AMPK [44] with the consequence of a synergistic inhibition of HMGCoAR activity, its direct target. In agreement with these evidences, our results provide a clear indication that, similarly to statins, peptide H3 increases the phosphorylation level of AMPK at the Thr172 residue of the catalytic subunit, which in turn produces an inhibition of ..."}, "[9]": {"settings": "from soybean glycinin hydrolysis with pepsin, read-out: IC50, HMGCoAR (soybean glycinin peptides)"}, "[10]": {"settings": "LTFPGSAED from lupin protein, VGVL from amaranth protein, hydrolysis with pepsin, read-out: IC50, HMGCoAR (literature peptides)"}, "[11]": {"settings": "from soybean β-conglycinin, read-out: IC50, HMGCoAR (soybean β-conglycinin peptides)"}}, "note": "Where two headings read alike, the source gives them in different places.", "data": [{"compound": "CC[C@H](C)C(=O)O[C@H]1C[C@H](O)C=C2C=C[C@H](C)[C@H](CC[C@@H](O)C[C@@H](O)CC(=O)O)[C@H]21", "note": "[pravastatin]", "values": [{"measurement": "IC50", "setting": "HMGCoAR [1]; read-out: IC50, HMGCoAR (literature value for pravastatin)", "result": 0.47, "unit": "µM"}, {"measurement": "HNF1-α level (activation up to)", "setting": "HNF1-α", "result": "116.9 ± 3.21", "unit": "%"}, {"measurement": "HMGCoAR protein level", "setting": "HMGCoAR [2]", "result": "129.3 ± 9.33", "unit": "%"}, {"measurement": "AMPK phosphorylation (threonine 172)", "setting": "AMPK [3]", "result": "122.7 ± 5.23", "unit": "%"}, {"measurement": "LDLR protein level on cellular membrane", "setting": "LDLR [4]", "result": "127.3 ± 14.31", "unit": "%"}, {"measurement": "precursor SREBP-2 (125 KDa) protein level", "setting": "SREBP-2; cytoplasmic fraction, p < 0.05, Figure S2", "result": "140.8 ± 9.0", "unit": "%"}, {"measurement": "mature nuclear SREBP-2 (65 KDa) protein level", "setting": "SREBP-2; nuclear fraction, p < 0.0001, mean ± S.D., three independent experiments in duplicate", "result": "152.3 ± 8.2", "unit": "%"}, {"measurement": "total mature SREBP-2 (65 KDa) protein level", "setting": "SREBP-2; total lysate, p < 0.001, mean ± S.D., three independent experiments in duplicate", "result": "134.9 ± 17.3", "unit": "%"}, {"measurement": "PCSK9 protein level (increase up to)", "setting": "PCSK9 [5]", "result": "118.8 ± 6.11", "unit": "%"}, {"measurement": "total LDLR protein level", "setting": "LDLR [6]", "result": "140.8 ± 15.35", "unit": "%"}, {"measurement": "LDL uptake", "setting": "HepG2 cells", "result": "226.9 ± 11.05", "unit": "%"}, {"measurement": "release of PCSK9 (increase up to)", "setting": "PCSK9 [7]", "result": "119.6 ± 1.18", "unit": "%"}, {"measurement": "phosphorylation level of HMGCoAR (serine 872)", "setting": "p-HMGCoAR", "result": "143.5 ± 4.64", "unit": "%"}]}, {"compound": "IAVPGEVA [peptide from soybean glycinin hydrolysis with pepsin]", "values": [{"measurement": "mechanism of HMGCoAR inhibition (AMPK phosphorylation)", "setting": "AMPK [8]; soybean peptides", "result": "share the same mechanism of HMGCoAR inhibition"}, {"measurement": "IC50", "setting": "HMGCoAR [1]; [9]", "result": 222, "unit": "µM"}]}, {"compound": "IAVPTGVA [peptide from soybean glycinin hydrolysis with pepsin]", "values": [{"measurement": "mechanism of HMGCoAR inhibition (AMPK phosphorylation)", "setting": "AMPK [8]; soybean peptides", "result": "share the same mechanism of HMGCoAR inhibition"}, {"measurement": "IC50", "setting": "HMGCoAR [1]; [9]", "result": 247, "unit": "µM"}]}, {"compound": "LILPKHSDAD [peptide from lupin protein hydrolysis with pepsin]", "values": [{"measurement": "mechanism of HMGCoAR inhibition (AMPK phosphorylation)", "setting": "AMPK [8]; lupin peptides", "result": "share the same mechanism of HMGCoAR inhibition"}]}, {"compound": "LPYP [peptide from soybean glycinin hydrolysis with pepsin]", "values": [{"measurement": "mechanism of HMGCoAR inhibition (AMPK phosphorylation)", "setting": "AMPK [8]; soybean peptides", "result": "share the same mechanism of HMGCoAR inhibition"}, {"measurement": "IC50", "setting": "HMGCoAR [1]; [9]", "result": 300, "unit": "µM"}]}, {"compound": "LTFPGSAED [peptide from lupin protein hydrolysis with pepsin]", "values": [{"measurement": "mechanism of HMGCoAR inhibition (AMPK phosphorylation)", "setting": "AMPK [8]; lupin peptides", "result": "share the same mechanism of HMGCoAR inhibition"}, {"measurement": "IC50", "setting": "HMGCoAR [1]; [10]", "result": 68.4, "unit": "µM"}]}, {"compound": "VGVL [peptide from amaranth protein hydrolysis with pepsin]", "values": [{"measurement": "IC50", "setting": "HMGCoAR [1]; [10]", "result": 50, "unit": "µM"}]}, {"compound": "YVVNPDNDEN [peptide from soybean β-conglycinin]", "values": [{"measurement": "IC50", "setting": "HMGCoAR [1]; [11]", "result": 150, "unit": "µM"}]}, {"compound": "YVVNPDNNEN [peptide from soybean β-conglycinin]", "values": [{"measurement": "IC50", "setting": "HMGCoAR [1]; [11]", "result": 200, "unit": "µM"}]}]}
